# Source: US20190086410A1, “FUNCTION-BASED PROBES FOR ENVIRONMENTAL MICROBIOME ANALYSIS AND METHODS OF MAKING AND USING THE SAME” (Battelle Memorial Institute, priority 2017, published 2019)
# Tests used:
# [1] = tested on: glucuronidase activity in the gut microbiome; type: in vivo, mouse; conditions: in 4 of 5 sets of littermates; vancomycin in water vs water
# Protocol: Microbial cells from the mouse gut were suspended in PBS with a protease inhibitor (COMPLETE® EDTA-free Protease Inhibitor, ROCHE®) and lysed via bead beating (BULLET BLENDER®). β-glucuronidase assays were conducted as previously described with modifications. Briefly, 4-methylumbelliferyl-β-D-glucuronide (4-MUG; 1 mM) was added to 50 μL lysate (0.9 μg total protein) for a final concentration of 500 μM. At specific time points (0-240 minutes), 10 μL aliquots of each reaction were added to 90 μL of 0.1 M […] (pH=10) and stored in the dark. Fluorescence was measured using a plate reader (MOLECULAR BIOSCIENCES®), and the amount of hydrolyzed substrate was calculated relative to a standard curve. The rate (mM/s) was determined via linear regression (GRAPHPAD® PRISM®), and activity was calculated as rate per μg protein. Values from three independent replicates were averaged, and activity was compared across biological replicates (n=5) using a ratio paired t-test.
# Pairs of littermates were exposed to water with or without vancomycin, an antibiotic known to target Firmicutes in the gut microbiota (FIG. 12). As Firmicutes made up most the probe-positive taxa in the non-treated mice (FIG. 13), vancomycin treatment may shift the GlcA-ABP+ population composition. […] Accordingly, the intensity of GlcA-ABP+ labeling decreased as well (FIG. 14B).
# gut microbiota = type: in vivo, mouse
# [2] = tested on: mix of WT E. coli and L. plantarum; test: Whole-cell probe labeling coupled to flow cytometry/FACS, mix of E. coli and L. plantarum; type: cell-based, Lactobacillus plantarum
# [3] = tested on: β-glucuronidases from Escherichia coli, Streptococcus agalactiae, and Clostridium perfringens; type: biochemical; conditions: wild-type enzymes; fluorescence SDS-PAGE
# β-glucuronidase (uidA) [4] = target: β-glucuronidase (uidA) (Escherichia coli, UniProt P05804); type: cell-based, E. coli
# Chain of β-glucuronidase (uidA) (Escherichia coli, UniProt P05804) (P05804 whole entry): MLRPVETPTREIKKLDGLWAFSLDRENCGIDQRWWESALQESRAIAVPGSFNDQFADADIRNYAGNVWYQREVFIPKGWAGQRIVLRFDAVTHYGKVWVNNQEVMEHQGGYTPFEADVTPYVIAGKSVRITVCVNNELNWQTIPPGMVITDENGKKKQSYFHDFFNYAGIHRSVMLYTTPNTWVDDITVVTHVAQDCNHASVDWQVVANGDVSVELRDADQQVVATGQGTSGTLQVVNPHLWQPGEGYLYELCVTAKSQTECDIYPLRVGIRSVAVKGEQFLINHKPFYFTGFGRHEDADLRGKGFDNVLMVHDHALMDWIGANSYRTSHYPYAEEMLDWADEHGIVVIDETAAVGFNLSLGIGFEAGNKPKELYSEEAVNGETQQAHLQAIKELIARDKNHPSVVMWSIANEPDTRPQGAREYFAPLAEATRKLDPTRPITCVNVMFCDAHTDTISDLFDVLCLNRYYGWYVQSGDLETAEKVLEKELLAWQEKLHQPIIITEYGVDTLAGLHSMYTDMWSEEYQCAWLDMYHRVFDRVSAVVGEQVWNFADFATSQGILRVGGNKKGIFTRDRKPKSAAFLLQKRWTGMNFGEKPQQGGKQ
# β-glucuronidase (uidA) [5] = type: cell-based, E. coli; conditions: ΔuidA strain lacking β-glucuronidase
# [6] = tested on: Lactobacillus plantarum, which lacks a β-glucuronidase; test: Whole-cell probe labeling coupled to flow cytometry/FACS, L. plantarum only; type: cell-based; conditions: 50 μM
# WT E. coli = test: Whole-cell probe labeling coupled to flow cytometry/FACS, E. coli only; type: cell-based; conditions: 50 μM
# [7] = vancomycin-treated vs untreated littermates
smiles,measurement,setting,value
"CN[C@H](CC(C)C)C(=O)N[C@H]1C(=O)N[C@@H](CC(N)=O)C(=O)N[C@H]2C(=O)N[C@H]3C(=O)N[C@H](C(=O)N[C@H](C(=O)O)c4cc(O)cc(O)c4-c4cc3ccc4O)[C@H](O)c3ccc(c(Cl)c3)Oc3cc2cc(c3O[C@@H]2O[C@H](CO)[C@@H](O)[C@H](O)[C@H]2O[C@H]2C[C@](C)(N)[C@H](O)[C@H](C)O2)Oc2ccc(cc2Cl)[C@H]1O [Vancomycin, vancomycin]",glucuronidase activity in gut microbiome after treatment,[1],"reduced, but did not eliminate"
same,relative abundance of Firmicutes,gut microbiota; [7],dramatically decreased
same,"relative abundance of Proteobacteria, Verrucomicrobia, and Bacteroidetes",gut microbiota; [7],corresponding increase
same,intensity of GlcA-ABP+ labeling after treatment,gut microbiota; vancomycin-treated vs untreated mice,decreased
"C#CCCCCNC(=O)CI [IAA, iodoacetamide alkyne, reference compound]","cell labeling by positive control probe, flow cytometry","[2]; E. coli only, L. plantarum only, or mix, 10 μM",all cells were labeled
"C#CCCCC(=O)Nc1ccc(OC2OC(C(=O)O)C(O)C(O)C2O)c(C(F)F)c1 (stereo not drawn) [GlcA-ABP, 6-(2-(difluoromethyl)-4-(hex-5-ynamido)phenoxy)-3,4,5-trihydroxytetrahydro-2H-pyran-2-carboxylic acid]",GlcA-ABP labeling intensity of purified β-glucuronidases,[3],corresponded with the catalytic efficiency of these enzymes
same,labeling in ΔuidA complemented with uidA,β-glucuronidase (uidA) [4]; SDS-PAGE and flow cytometry,restoration of labeling
same,labeling of β-glucuronidase in wild type (WT) E. coli,"β-glucuronidase (uidA) [4]; WT E. coli, SDS-PAGE",Dose-dependent labeling
same,labeling in ΔuidA E. coli,β-glucuronidase (uidA) [5],no labeling
same,"cell labeling, flow cytometry",[6],none
same,"cell labeling, flow cytometry","[2]; mixture of E. coli and L. plantarum, 50 μM",an intermediate amount
same,"cell labeling, flow cytometry",WT E. coli,labeling was observed
